From patent US8980838B2, “Cyclized peptidomimetic small molecule inhibitors of the WDR5 and MLL1 interaction” (The Regents of the University of Michigan, priority 2011, dated 2015)
*1 amine or outer side, *2 acyl side, *3 side chain or, on linkers, in order; H or OH if unused. Where a SMILES comes first, the peptide text is derived from it. Bridges are numbered along the chain shown (N, C = ends). [ ]: non-standard residue; d: D form. The star is where a group is joined. dαMeLys(Me) = CN(CCCC[C@@](C)(N[*:1])C(=O)[*:2])[*:3]; dPhg(4-F) = N[C@@H](C(=O)O)c1ccc(F)cc1; dPhg = N[C@@H](C(=O)O)c1ccccc1; Isobutyryl = CC(C)C(=O)*; Abu = CC[C@H](N)C(=O)O

biological target: T1, WDR5 (Homo sapiens, UniProt P61964); test: fluorescence-polarization based competitive binding assay; details: not given
T1 construct: N-terminal His-tagged WDR5Δ23 (residues 24-334) was expressed from the pET28-MHL vector; His tag (N); made in house; host or cells: Rosetta2(DE3) pLysS cells (E. coli)
Method: Binding Assay Protein Expression and Purification for the Binding Assay
Cells were grown to OD600=0.4-0.6 in 4 L 2×TY at 30° C., induced with 0.1 mM IPTG at 16° C. for 16 hours and harvested in 20 mM HEPES pH 7.5, 500 mM KCl, 10% glycerol, 0.1 mg/ml PMSF, 0.05% NP40. Cells were lysed by addition of 0.2 mg/ml hen egg white lysozyme followed by sonication and clarification by centrifuging for 30 minutes at 15,000 rpm. The resin was washed 3 times for 10 minutes with 40 ml lysis buffer. His-WDR5Δ23 was eluted from the resin by 3×15 minute elutions with 20 mM HEPES pH 7.5, 100 mM KCl, 10% glycerol, 250 mM imidazole pH 7.5. […] Concentrated protein was aliquoted and samples were frozen on dry ice and stored at −80° C.
The IC50 value of the inhibitors were calculated using GraphPad Prism 4 software.
Competitive Binding Experiments
The binding affinities of the synthetic peptides shown in the study were measured using this competitive binding assay described earlier (31). A pre-incubated complex solution of WDR5Δ23 and the tracer in 120 μl assay buffer were added to dilutions of the test compound in 5 μl DMSO, giving final concentrations of WDR5Δ23 and the tracer of 4 nM and 0.6 nM, respectively. […] The plates were incubated with shaking at room temperature. The mP values were measured after five hours of incubation and Ki values were calculated using the equation described previously (32).

Row | Compound | IC50 [nM]
1 | CC[C@@H]1NC(=O)[C@H](CCCNC(=N)N)NC(=O)[C@](C)(NC(=O)C(C)C)CCCCN(C)C(=O)[C@@H](c2ccccc2)NC1=O [Compound 29d] (Isobutyryl-[dαMeLys(Me)]R[Abu][dPhg]; lactam 1-C) | < 10
2 | CC[C@@H]1NC(=O)[C@H](CCCNC(=N)N)NC(=O)[C@](C)(NC(=O)C(C)C)CCCCN(C)C(=O)[C@@H](c2ccc(F)cc2)NC1=O [Compound 29e] (Isobutyryl-[dαMeLys(Me)]R[Abu][dPhg(4-F)]; lactam 1-C) | < 10
3 | CC[C@@H]1NC(=O)[C@H](CCCNC(=N)N)NC(=O)[C@](C)(NC(=O)C(C)C)CCCCN(C)C(=O)[C@@H](c2ccc(Cl)cc2)NC1=O [Compound 29f] | < 10

same assay, conditions: FP competitive binding; WDR5Δ23 4 nM, tracer 0.6 nM, five hours incubation; Table 2 series; read-out: IC50, binding affinity to WDR5

Row | IC50 [nM] | Compound
4 | < 1000 | CC[C@@H]1NC(=O)[C@H](CCCNC(=N)N)NC(=O)[C@](C)(NC(=O)C(C)C)CCCCCNC1=O [Compound 19a]
5 | < 10 | CC[C@@H]1NC(=O)[C@H](CCCNC(=N)N)NC(=O)[C@](C)(NC(=O)C(C)C)CCCCCCNC1=O [Compound 19b]
6 | < 10 | CC[C@@H]1NC(=O)[C@H](CCCNC(=N)N)NC(=O)[C@](C)(NC(=O)C(C)C)CCCCCCCCNC1=O [Compound 19c]
7 | < 10 | CC[C@@H]1NC(=O)[C@H](CCCNC(=N)N)NC(=O)[C@](C)(NC(=O)C(C)C)CCCCCCNC(=O)[C@@H](c2ccccc2)NC1=O [Compound 29b]
8 | < 10 | CC[C@@H]1NC(=O)[C@H](CCCNC(=N)N)NC(=O)[C@](C)(NC(=O)C(C)C)CCCCCCNC(=O)[C@H](c2ccccc2)NC1=O [Compound 29c]

same assay, conditions: FP competitive binding; WDR5Δ23 4 nM, tracer 0.6 nM, five hours incubation; Table 3 series; read-out: IC50, binding affinity to WDR5

Row | IC50 [nM] | Compound
9 | < 1000 | CC[C@@H]1NC(=O)[C@H](CCCNC(=N)N)NC(=O)[C@@](C)(NC(=O)C(C)C)CCCCCCCNC1=O [Compound 34c]
10 | < 1000 | CC[C@@H]1NC(=O)[C@H](CCCNC(=N)N)NC(=O)[C@@](C)(NC(=O)C(C)C)CCCCCCCCNC1=O [Compound 34d]
11 | < 1000 | CC[C@@H]1NC(=O)[C@H](CCCNC(=N)N)NC(=O)[C@@](C)(NC(=O)C(C)C)CCCCCCNC(=O)[C@H](c2ccccc2)NC1=O [Compound 36]

same assay, conditions: FP competitive binding; WDR5Δ23 4 nM, tracer 0.6 nM, five hours incubation; first cyclic series (Table 1); read-out: IC50, binding affinity to WDR5

Row | IC50 [nM] | Compound
12 | > 100000 | CCC1(CC)NC(=O)CCCCNC(=O)[C@H](CCCNC(=N)N)NC1=O [Compound 4a]
13 | > 100000 | CCC1(CC)NC(=O)CCCCCNC(=O)[C@H](CCCNC(=N)N)NC1=O [Compound 4b]
14 | > 100000 | CCC1(CC)NC(=O)CCCCCCNC(=O)[C@H](CCCNC(=N)N)NC1=O [Compound 4c]
15 | > 1000 | CCC1(CC)NC(=O)CCCCCCCNC(=O)[C@H](CCCNC(=N)N)NC1=O [Compound 4d]
16 | > 1000 | CCC1(CC)NC(=O)CCCCCCCCNC(=O)[C@H](CCCNC(=N)N)NC1=O [Compound 4e]
17 | > 100000 | CCC1(CC)NC(=O)CCCCCCCN(C(C)=O)C[C@H](CCCNC(=N)N)NC1=O [Compound 14]
18 | > 100000 | CCC1(CC)NC(=O)CCCCCCCNC[C@H](CCCNC(=N)N)NC1=O [Compound 15]
